Measurements: patent publication US4059694A, “Cardiotonic agent” (The University of Hawaii, priority 1976, dated 1977)
Where two headings read alike, the source gives them in different places.

What was measured:
[1] = tested on: isolated guinea pig atria; experiment: Positive inotropic effect on isolated guinea pig atria; format: cell-based
Protocol: (§1) Anthopleurin-A can be further characterized by its pharmacological characteristics. […] The LD50 in mice (i.p.) is about 0.2-0.3 mg./kg.

mice = experiment: Acute toxicity (LD50) in mice, i.p.; format: in vivo
Protocol: as §1

heart rate = experiment: Chronotropic effect (heart rate)
Na, K-ATPase = experiment: Enzyme inhibition, Na, K-ATPase; format: biochemical; details: 3 × 10^-8 M
monoamine oxidase = experiment: Enzyme inhibition, monoamine oxidase; format: biochemical; details: 3 × 10^-8 M
[2] = tested on: catechol-O-methyltransferase; experiment: Enzyme inhibition, catechol-O-methyltransferase; format: biochemical; details: 3 × 10^-8 M
[3] = tested on: cyclic 3', 5'-nucleotide phosphodiesterase; experiment: Enzyme inhibition, cyclic 3', 5'-nucleotide phosphodiesterase; format: biochemical; details: 3 × 10^-8 M
[4] = Dependence of drug action and toxicity on external Ca++ and K+, compared with ouabain
isolated heart [5] = experiment: Cardiotonic effect in the isolated heart, rat; format: cell-based
From the text: (§2) This cardiac stimulation is observed in animals by measuring the in vitro contractile effect on isolated heart muscle and in vivo in anesthetized dogs fitted with a cardiac strain gauge.

isolated heart [6] = experiment: Cardiotonic effect in the isolated heart, guinea pig; format: cell-based
From the text: as §2

isolated heart [7] = experiment: Cardiotonic effect in the isolated heart, rabbit; format: cell-based
From the text: as §2

isolated heart [8] = experiment: Cardiotonic effect in the isolated heart, cat; format: cell-based
From the text: as §2

isolated heart [9] = experiment: Cardiotonic effect in the isolated heart, dog; format: cell-based
From the text: as §2

in situ heart [10] = experiment: Cardiotonic effect in the in situ heart, dog; format: in vivo
From the text: as §2

in situ heart [11] = experiment: Cardiotonic effect in the in situ heart, cat; format: in vivo
blood pressure = experiment: Effect on blood pressure; details: in vivo
isolated vascular muscle = experiment: Mechanical effect on the isolated vascular muscle; format: cell-based
atria = experiment: Inotropic effect on atria under stressful conditions; format: cell-based; details: severe temperature stress, anoxia and low Ca^++ concentrations
[12] = Stability of anthopleurin-A on storage and in solution; format: physicochemical
Solubility in water = format: physicochemical; details: deionized water
Isoelectric focusing = format: physicochemical; details: doubly purified material
From the text: For the purpose of obtaining electrophoretic and amino acid analysis the anthopleurin-A obtained in Example 1 was rechromatographed on CM Sephadex C-25, Sephadex G-50 and G-10 according to the process set forth in Example 1, Steps c, d and e, respectively. The doubly purified material was subject to electrophoretic analysis using commercially available pre-cast 12% acrylamide gels and matched buffer systems obtained from Bio.Rad Laboratories, 32nd and Griffin, Richmond, California.
Isoelectric focusing gives the isoelectric point at a pH = 8.2. Disc gel electrophoresis with 12% polyacrylamide gel at pH 3.6 gave an Rf value of 0.46 versus methyl green tracking dye. […] Sodium dodecyl sulfate (SDS) disc gel electrophoresis using a 10% gel indicated a m.w. of about 4,700 after incubation with dithioerythritol, using RNase A and pancreatic trypsin inhibitor (PTI) for comparison. The molecular weight is so low that these values are only approximate. AP-A was determined to be a peptide on the basis of positive ninhydrin spots obtained when a hydrolysate of AP-A was chromatographed.

## anthopleurin-A
[1]; isolated guinea pig atria
  ED50, positive inotropic effect: 1.1 nM
[1]; times as potent as ouabain
  potency relative to ouabain in positive inotropic effect: 200-1000 x
mice
  LD50: 0.2 to 0.3 mg/kg
Heart rate
  chronotropic effect / effect on heart rate: does not show any chronotropic effect
Heart rate; listed as AP-A
  chronotropic effect / effect on heart rate: does not have any demonstrable effect
Na, K-ATPase
  inhibition of Na, K-ATPase: none of the following enzymes is inhibited
Monoamine oxidase
  inhibition of monoamine oxidase: none of the following enzymes is inhibited
[2]
  inhibition of catechol-O-methyltransferase: none of the following enzymes is inhibited
[3]
  inhibition of cyclic 3', 5'-nucleotide phosphodiesterase: none of the following enzymes is inhibited
[4]
  effect of lowered external K^+ on drug toxicity: does not alter drug toxicity
  sensitivity to Ca^++ concentration: not nearly as sensitive
Isolated heart [5]
  cardiotonic effect in the isolated heart: effective cardiotonic agent
Isolated heart [6]
  cardiotonic effect in the isolated heart: effective cardiotonic agent
Isolated heart [7]
  cardiotonic effect in the isolated heart: effective cardiotonic agent
Isolated heart [8]
  cardiotonic effect in the isolated heart: effective cardiotonic agent
Isolated heart [9]
  cardiotonic effect in the isolated heart: effective cardiotonic agent
In situ heart [10]
  cardiotonic effect in the in situ heart: effective cardiotonic agent
In situ heart [11]
  cardiotonic effect in the in situ heart: effective cardiotonic agent
Blood pressure
  effect on blood pressure: negligible effect
Blood pressure; listed as AP-A
  effect on blood pressure: does not have any demonstrable effect
Isolated vascular muscle
  mechanical effect on the isolated vascular muscle / vascular smooth muscle: no demonostrable mechanical effect
Isolated vascular muscle; listed as AP-A
  mechanical effect on the isolated vascular muscle / vascular smooth muscle: does not have any demonstrable effect
atria
  inotropic effect on atria under stress: positive inotropic effect
[12]; as fraction G, 20.5° C., 10^-7 M solutions, pH 4.55-7.80
  time stable in solution: at least 24 hours
[12]; as fraction G, pH above 11
  loss of cardiotonic activity: about 90%
[12]; kept at -20° C. for a year as lyophilized fraction C or lyophilized fraction G
  storage stability: no signs of deterioration
[12]; neutral and lower pH values
  stability versus pH: relatively stable
Solubility in water
  solubility: very soluble
Isoelectric focusing
  isoelectric point: 8.2 pH
